# Source: ChEMBL document CHEMBL1649265, “Antimicrobial susceptibilities of Mycoplasma genitalium strains examined by broth dilution and quantitative PCR” (2009)
# Key:
# Assay type in all cases: functional
# Settings in all cases: Mycoplasmoides genitalium
# Mycoplasma genitalium [1] = test: Antibacterial activity against Mycoplasma genitalium M2341 by broth dilution method
# Mycoplasma genitalium [2] = test: Antibacterial activity against Mycoplasma genitalium TW48-5G by broth dilution method
# Mycoplasma genitalium [3] = test: Antibacterial activity against Mycoplasma genitalium M30 by broth dilution method
# Mycoplasma genitalium [4] = test: Antibacterial activity against Mycoplasma genitalium M6283 by broth dilution method
# Mycoplasma genitalium [5] = test: Antibacterial activity against Mycoplasma genitalium M6284 by broth dilution method
# Mycoplasma genitalium [6] = test: Antibacterial activity against Mycoplasma genitalium M6151 by broth dilution method
# Mycoplasma genitalium [7] = test: Antibacterial activity against Mycoplasma genitalium M6285 by broth dilution method
# Mycoplasma genitalium [8] = test: Antibacterial activity against Mycoplasma genitalium by broth dilution method
# Mycoplasma genitalium [9] = test: Antibacterial activity against Mycoplasma genitalium R32 by broth dilution method
# Mycoplasma genitalium [10] = test: Antibacterial activity against Mycoplasma genitalium M6090 by broth dilution method
# Mycoplasma genitalium [11] = test: Antibacterial activity against Mycoplasma genitalium TW10-5G by broth dilution method
# Mycoplasma genitalium [12] = test: Antibacterial activity against Mycoplasma genitalium M6286 by broth dilution method
# Mycoplasma genitalium [13] = test: Antibacterial activity against Mycoplasma genitalium G37 by broth dilution method
# Mycoplasma genitalium [14] = test: Antibacterial activity against Mycoplasma genitalium M6287 by broth dilution method
# Mycoplasma genitalium [15] = test: Antibacterial activity against Mycoplasma genitalium M6328 by broth dilution method
# Mycoplasma genitalium [16] = test: Antibacterial activity against Mycoplasma genitalium M2300 by broth dilution method
# Mycoplasma genitalium [17] = test: Antibacterial activity against Mycoplasma genitalium M6282 by broth dilution method
# Mycoplasma genitalium [18] = test: Antibacterial activity against Mycoplasma genitalium UTMB-10G by broth dilution method
# Mycoplasma genitalium [19] = test: Antibacterial activity against Mycoplasma genitalium TW10-6G by broth dilution method
# Mycoplasma genitalium [20] = test: Antibacterial activity against Mycoplasma genitalium by quantitative TaqMan PCR method
# Mycoplasma genitalium [21] = test: Antibacterial activity against Mycoplasma genitalium M6280 by broth dilution method
# Mycoplasma genitalium [22] = test: Antibacterial activity against Mycoplasma genitalium M2321 by broth dilution method
# Mycoplasma genitalium [23] = test: Antibacterial activity against Mycoplasma genitalium M6257 by broth dilution method
# Mycoplasma genitalium [24] = test: Antibacterial activity against Mycoplasma genitalium M2282 by broth dilution method
SMILES,MIC (Mycoplasma genitalium [1]),MIC (Mycoplasma genitalium [2]; read-out: MIC),MIC (Mycoplasma genitalium [3]; read-out: MIC),MIC (Mycoplasma genitalium [4]),MIC (Mycoplasma genitalium [5]),MIC (Mycoplasma genitalium [6]),MIC (Mycoplasma genitalium [7]),MIC (Mycoplasma genitalium [9]; read-out: MIC),MIC (Mycoplasma genitalium [10]),MIC (Mycoplasma genitalium [11]; read-out: MIC),MIC (Mycoplasma genitalium [12]),MIC (Mycoplasma genitalium [13]; read-out: MIC),MIC (Mycoplasma genitalium [14]),MIC (Mycoplasma genitalium [15]),MIC (Mycoplasma genitalium [16]),MIC (Mycoplasma genitalium [17]),MIC (Mycoplasma genitalium [18]; read-out: MIC),MIC (Mycoplasma genitalium [19]; read-out: MIC),MIC50 (Mycoplasma genitalium [20]),MIC90 (Mycoplasma genitalium [20]),other results
C[C@H]1COc2c(N3CCN(C)CC3)c(F)cc3c(=O)c(C(=O)O)cn1c23.C[C@H]1COc2c(N3CCN(C)CC3)c(F)cc3c(=O)c(C(=O)O)cn1c23.O [LEVOFLOXACIN],0.125 µg/mL,1 µg/mL,1 µg/mL,0.125 µg/mL,0.125 µg/mL,0.125 µg/mL,0.125 µg/mL,1 µg/mL,0.125 µg/mL,1 µg/mL,0.125 µg/mL,1 µg/mL,0.125 µg/mL,0.125 µg/mL,0.125 µg/mL,0.125 µg/mL,1 µg/mL,1 µg/mL,1 µg/mL,4 µg/mL,MIC50 (Mycoplasma genitalium [8]; read-out: MIC50): 1 µg/mL; MIC90 (Mycoplasma genitalium [8]; read-out: MIC90): 2 µg/mL; MIC (Mycoplasma genitalium [21]): 0.125 µg/mL; MIC (Mycoplasma genitalium [22]): 0.125 µg/mL; MIC (Mycoplasma genitalium [23]): 0.125 µg/mL; MIC (Mycoplasma genitalium [24]): 0.125 µg/mL
CN(C)[C@@H]1C(O)=C(C(N)=O)C(=O)[C@@]2(O)C(O)=C3C(=O)c4c(O)cccc4[C@@](C)(O)[C@H]3C[C@@H]12 [TETRACYCLINE],0.063 µg/mL,0.063 µg/mL,0.063 µg/mL,0.063 µg/mL,0.063 µg/mL,0.063 µg/mL,0.063 µg/mL,0.063 µg/mL,0.063 µg/mL,0.063 µg/mL,0.063 µg/mL,0.063 µg/mL,0.063 µg/mL,0.063 µg/mL,0.063 µg/mL,0.063 µg/mL,0.063 µg/mL,0.063 µg/mL,0.5 µg/mL,2 µg/mL,MIC50 (Mycoplasma genitalium [8]; read-out: MIC50): 0.125 µg/mL; MIC90 (Mycoplasma genitalium [8]; read-out: MIC90): 0.5 µg/mL; MIC (Mycoplasma genitalium [21]): 0.063 µg/mL; MIC (Mycoplasma genitalium [22]): 0.063 µg/mL; MIC (Mycoplasma genitalium [23]): 0.063 µg/mL; MIC (Mycoplasma genitalium [24]): 0.063 µg/mL
CC[C@H]1OC(=O)[C@H](C)[C@@H](O[C@H]2C[C@@](C)(OC)[C@@H](O)[C@H](C)O2)[C@H](C)[C@@H](O[C@@H]2O[C@H](C)C[C@H](N(C)C)[C@H]2O)[C@](C)(OC)C[C@@H](C)C(=O)[C@H](C)[C@@H](O)[C@]1(C)O [CLARITHROMYCIN],–,–,–,–,–,–,–,–,–,–,–,–,–,–,–,–,–,–,0.032 µg/mL,0.063 µg/mL,MIC (Mycoplasma genitalium [2]): 0.002 µg/mL; MIC (Mycoplasma genitalium [3]): 0.002 µg/mL; MIC50 (Mycoplasma genitalium [8]): 0.004 µg/mL; MIC90 (Mycoplasma genitalium [8]): 0.008 µg/mL; MIC (Mycoplasma genitalium [9]): 0.002 µg/mL; MIC (Mycoplasma genitalium [11]): 0.002 µg/mL; MIC (Mycoplasma genitalium [13]): 0.002 µg/mL; MIC (Mycoplasma genitalium [18]): 0.002 µg/mL; MIC (Mycoplasma genitalium [19]): 0.002 µg/mL
O=C(O)c1cn(C2CC2)c2cc(N3CCNCC3)c(F)cc2c1=O [CIPROFLOXACIN],0.063 µg/mL,0.004 µg/mL,0.004 µg/mL,0.063 µg/mL,0.063 µg/mL,0.063 µg/mL,0.063 µg/mL,0.004 µg/mL,0.063 µg/mL,0.004 µg/mL,0.063 µg/mL,0.004 µg/mL,0.063 µg/mL,0.063 µg/mL,0.063 µg/mL,0.063 µg/mL,0.004 µg/mL,0.004 µg/mL,2 µg/mL,8 µg/mL,MIC (Mycoplasma genitalium [21]): 0.063 µg/mL; MIC (Mycoplasma genitalium [22]): 0.063 µg/mL; MIC (Mycoplasma genitalium [23]): 0.063 µg/mL; MIC (Mycoplasma genitalium [24]): 0.063 µg/mL
CN(C)c1ccc(O)c2c1C[C@H]1C[C@H]3[C@H](N(C)C)C(O)=C(C(N)=O)C(=O)[C@@]3(O)C(O)=C1C2=O [MINOCYCLINE],0.063 µg/mL,0.031 µg/mL,0.031 µg/mL,0.063 µg/mL,0.063 µg/mL,0.063 µg/mL,0.063 µg/mL,0.031 µg/mL,0.063 µg/mL,0.031 µg/mL,0.063 µg/mL,0.031 µg/mL,0.063 µg/mL,0.063 µg/mL,0.063 µg/mL,0.063 µg/mL,0.031 µg/mL,0.031 µg/mL,–,–,MIC50 (Mycoplasma genitalium [8]; read-out: MIC50): 0.125 µg/mL; MIC90 (Mycoplasma genitalium [8]; read-out: MIC90): 0.25 µg/mL; MIC (Mycoplasma genitalium [21]): 0.063 µg/mL; MIC (Mycoplasma genitalium [22]): 0.063 µg/mL; MIC (Mycoplasma genitalium [23]): 0.063 µg/mL; MIC (Mycoplasma genitalium [24]): 0.063 µg/mL
COc1c(N2C[C@@H]3CCCN[C@@H]3C2)c(F)cc2c(=O)c(C(=O)O)cn(C3CC3)c12 [MOXIFLOXACIN],0.016 µg/mL,0.063 µg/mL,0.063 µg/mL,0.016 µg/mL,0.016 µg/mL,0.016 µg/mL,0.016 µg/mL,0.063 µg/mL,0.016 µg/mL,0.063 µg/mL,0.016 µg/mL,0.063 µg/mL,0.016 µg/mL,0.016 µg/mL,0.016 µg/mL,0.016 µg/mL,0.063 µg/mL,0.063 µg/mL,0.063 µg/mL,0.125 µg/mL,MIC50 (Mycoplasma genitalium [8]; read-out: MIC50): 0.063 µg/mL; MIC90 (Mycoplasma genitalium [8]; read-out: MIC90): 0.125 µg/mL; MIC (Mycoplasma genitalium [21]): 0.016 µg/mL; MIC (Mycoplasma genitalium [22]): 0.016 µg/mL; MIC (Mycoplasma genitalium [23]): 0.016 µg/mL; MIC (Mycoplasma genitalium [24]): 0.016 µg/mL
